Where “and” joins values, the source holds several entries; their conditions need not be identical. Equal values may be shown once. Read-outs that look alike come from different tables or passages of the source. Marks after values point to notes of the source that are not given here. Each block holds one molecule with its values, some of them ahead of it.
Key:
[1] = biological target: TYK2 (Homo sapiens (Human), UniProt P29597); assay: In vitro kinase activity test, TYK2(h) enzyme reaction; type: biochemical
[2] = biological target: JAK1 (Homo sapiens (Human), UniProt P23458); assay: In vitro kinase activity test, JAK1(h) enzyme reaction; type: biochemical
[3] = biological target: JAK2 (Homo sapiens (Human), UniProt O60674); assay: In vitro kinase activity test, JAK2(h) enzyme reaction; type: biochemical
[4] = biological target: JAK3 (Homo sapiens (Human), UniProt P52333); assay: In vitro kinase activity test, JAK3(h) enzyme reaction; type: biochemical
[5] = tested on: collagen-induced arthritis (CIA) in mice; type: in vivo, DBA/1 mice; set-up: key to Average clinical score: score 0-4 per limb, max 16 per animal
Procedure: Experiment 3: In Vivo Efficacy Study of Collagen-Induced Arthritis (CIA) in Mice
1. Type II Collagen/Complete Freund's Adjuvant Immune
Preparation of acetic acid: 2N acetic acid was diluted to 100 mM, filtered by 0.22 micron filter membrane, and stored at 4° C.
Bovine type 2 collagen (CII) was dissolved in 100 mM acetic acid solution, then stored overnight at 4° C. Final concentration of the collagen is 8 mg/ml.
Preparation of emulsion: the overnight stored CII solution was mixed with equal volume of complete Freund's adjuvant, and homogenized on ice on a high-speed homogenizer at 30,000 revolutions per minute for approximately 60 minutes until the solution forms a stable emulsion.
2. Induction of Arthritis:
Mice were randomly divided into different treatment groups. The day for the first immunization is recorded as day 0, and the subsequent days are marked in order.
DBA/1 mice were anesthetized with isoflurane and injected with […] prepared collagen emulsion (containing […] CII) subcutaneously (2-3 cm from the root of the tail). At day 21, the tail was injected with the same volume of collagen emulsion in the same way. The mice in the normal group was not immunized.
3. Designs of Administration and Dosages
At day 28, when average clinical score is about […] with moderate incidence were selected ad randomly divided into 5 treatment groups based on body weights and scores, with each group having 8 mice.
Dexamethasone (Dex.) was used as a reference drug for measuring whether the model was successfully established, with a dose of 0.3 mg/kg (a commonly used dose in a CIA model). […] They were administered twice a day for a total of 14 days.
4. Measuring of Incidence Index of Arthritis
Clinical observation: from 7 days before immunization to the 21st day after immunization, the basic health status and weight changes of DBA/1 mice was observed daily (recorded once a week). After the 22nd day, the health status, the incidence circumstances, and weight changes of the mice was observed every day (recorded at least three times a week) until the end of the experiment.
Clinical scoring: the incidence of the mice was observed every day after boosting the immune function. After the mice was attacked (showing clinical symptoms of arthritis), the incidence was scored from 0-4 as scoring standard according to different levels of the disease (redness, joint deformation). The highest score for each limb is 4, and the highest score for each animal is 16. The scoring was performed three times a week.
The experimental data is expressed as mean standard error (Mean SEM), and the area under the curve (AUC) is analyzed by one-way ANOVA. P<0.05 is considered to be significant.

[6] = tested on: adjuvant-induced arthritis rat model; details: AIA rats, 30 mg/kg p.o. bid
[7] = CIA mice, 0.3 mg/kg p.o. qd, day 21
[8] = CIA mice, 0.3 mg/kg p.o. qd, day 24
[9] = CIA mice, 0.3 mg/kg p.o. qd, day 27
[10] = CIA mice, 0.3 mg/kg p.o. qd, day 28
[11] = CIA mice, 0.3 mg/kg p.o. qd, day 29
[12] = CIA mice, 0.3 mg/kg p.o. qd, day 31
[13] = CIA mice, 0.3 mg/kg p.o. qd, day 31, listed as Dex
[14] = CIA mice, 0.3 mg/kg p.o. qd, day 34
[15] = CIA mice, 0.3 mg/kg p.o. qd, day 36
[16] = CIA mice, 0.3 mg/kg p.o. qd, day 38
[17] = CIA mice, 0.3 mg/kg p.o. qd, day 41

Sequence of JAK1 (P23458 whole entry): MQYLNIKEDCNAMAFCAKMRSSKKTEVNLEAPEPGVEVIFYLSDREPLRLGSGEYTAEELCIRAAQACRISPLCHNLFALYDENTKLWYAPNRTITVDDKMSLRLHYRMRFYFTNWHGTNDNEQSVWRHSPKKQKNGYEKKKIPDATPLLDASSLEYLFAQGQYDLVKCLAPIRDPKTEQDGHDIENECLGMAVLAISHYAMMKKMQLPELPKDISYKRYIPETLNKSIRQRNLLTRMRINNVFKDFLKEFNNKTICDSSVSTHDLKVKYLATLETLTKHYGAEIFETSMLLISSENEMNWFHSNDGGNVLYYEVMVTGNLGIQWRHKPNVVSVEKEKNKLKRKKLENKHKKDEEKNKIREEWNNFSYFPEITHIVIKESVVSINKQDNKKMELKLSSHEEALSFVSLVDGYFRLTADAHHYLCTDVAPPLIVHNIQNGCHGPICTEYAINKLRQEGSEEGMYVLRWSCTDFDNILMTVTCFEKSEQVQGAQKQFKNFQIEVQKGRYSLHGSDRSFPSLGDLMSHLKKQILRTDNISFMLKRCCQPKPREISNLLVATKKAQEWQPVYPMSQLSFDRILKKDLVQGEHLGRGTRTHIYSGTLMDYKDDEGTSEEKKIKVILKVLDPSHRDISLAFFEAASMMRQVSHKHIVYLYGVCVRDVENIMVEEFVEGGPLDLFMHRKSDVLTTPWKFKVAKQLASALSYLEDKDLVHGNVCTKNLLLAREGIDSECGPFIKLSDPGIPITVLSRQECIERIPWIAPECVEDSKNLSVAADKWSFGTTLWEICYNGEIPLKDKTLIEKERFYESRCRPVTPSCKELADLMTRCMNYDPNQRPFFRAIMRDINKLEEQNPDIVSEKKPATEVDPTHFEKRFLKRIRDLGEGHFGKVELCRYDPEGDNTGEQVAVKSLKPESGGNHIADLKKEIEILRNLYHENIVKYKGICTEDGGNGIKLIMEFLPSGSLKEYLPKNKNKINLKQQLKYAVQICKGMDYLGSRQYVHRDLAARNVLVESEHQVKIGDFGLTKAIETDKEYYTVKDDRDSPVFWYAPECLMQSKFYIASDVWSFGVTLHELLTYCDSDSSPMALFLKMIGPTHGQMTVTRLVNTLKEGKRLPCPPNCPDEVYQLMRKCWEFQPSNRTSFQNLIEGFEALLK
Sequence of JAK3 (P52333 whole entry): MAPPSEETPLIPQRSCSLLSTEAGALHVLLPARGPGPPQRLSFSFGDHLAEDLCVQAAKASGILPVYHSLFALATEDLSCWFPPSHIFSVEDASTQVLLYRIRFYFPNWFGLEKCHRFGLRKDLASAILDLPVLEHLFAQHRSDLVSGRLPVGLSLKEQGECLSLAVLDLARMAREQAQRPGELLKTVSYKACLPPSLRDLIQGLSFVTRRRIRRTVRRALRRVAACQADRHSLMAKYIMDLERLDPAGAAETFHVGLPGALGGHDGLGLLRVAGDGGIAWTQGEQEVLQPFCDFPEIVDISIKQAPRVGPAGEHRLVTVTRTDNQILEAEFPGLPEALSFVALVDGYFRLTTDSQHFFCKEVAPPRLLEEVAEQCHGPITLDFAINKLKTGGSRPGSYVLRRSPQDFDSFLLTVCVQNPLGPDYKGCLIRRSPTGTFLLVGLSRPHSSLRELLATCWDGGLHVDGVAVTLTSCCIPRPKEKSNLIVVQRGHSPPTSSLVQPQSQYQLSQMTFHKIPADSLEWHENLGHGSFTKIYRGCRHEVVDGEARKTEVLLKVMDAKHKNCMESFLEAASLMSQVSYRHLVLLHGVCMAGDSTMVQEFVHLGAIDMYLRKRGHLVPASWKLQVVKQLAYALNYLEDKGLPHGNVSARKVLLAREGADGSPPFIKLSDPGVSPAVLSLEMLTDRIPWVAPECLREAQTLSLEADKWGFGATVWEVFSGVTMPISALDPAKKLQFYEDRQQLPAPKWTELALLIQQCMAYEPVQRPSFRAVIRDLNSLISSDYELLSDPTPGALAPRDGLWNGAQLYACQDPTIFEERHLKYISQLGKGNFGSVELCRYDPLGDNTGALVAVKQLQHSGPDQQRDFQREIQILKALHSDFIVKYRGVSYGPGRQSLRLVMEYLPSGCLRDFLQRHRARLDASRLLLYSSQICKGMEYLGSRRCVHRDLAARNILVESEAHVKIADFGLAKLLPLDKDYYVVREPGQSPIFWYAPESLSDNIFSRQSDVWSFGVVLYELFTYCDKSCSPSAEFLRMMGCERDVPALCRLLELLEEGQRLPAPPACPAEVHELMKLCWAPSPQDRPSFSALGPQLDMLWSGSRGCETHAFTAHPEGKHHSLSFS
Sequence of TYK2 (P29597 whole entry): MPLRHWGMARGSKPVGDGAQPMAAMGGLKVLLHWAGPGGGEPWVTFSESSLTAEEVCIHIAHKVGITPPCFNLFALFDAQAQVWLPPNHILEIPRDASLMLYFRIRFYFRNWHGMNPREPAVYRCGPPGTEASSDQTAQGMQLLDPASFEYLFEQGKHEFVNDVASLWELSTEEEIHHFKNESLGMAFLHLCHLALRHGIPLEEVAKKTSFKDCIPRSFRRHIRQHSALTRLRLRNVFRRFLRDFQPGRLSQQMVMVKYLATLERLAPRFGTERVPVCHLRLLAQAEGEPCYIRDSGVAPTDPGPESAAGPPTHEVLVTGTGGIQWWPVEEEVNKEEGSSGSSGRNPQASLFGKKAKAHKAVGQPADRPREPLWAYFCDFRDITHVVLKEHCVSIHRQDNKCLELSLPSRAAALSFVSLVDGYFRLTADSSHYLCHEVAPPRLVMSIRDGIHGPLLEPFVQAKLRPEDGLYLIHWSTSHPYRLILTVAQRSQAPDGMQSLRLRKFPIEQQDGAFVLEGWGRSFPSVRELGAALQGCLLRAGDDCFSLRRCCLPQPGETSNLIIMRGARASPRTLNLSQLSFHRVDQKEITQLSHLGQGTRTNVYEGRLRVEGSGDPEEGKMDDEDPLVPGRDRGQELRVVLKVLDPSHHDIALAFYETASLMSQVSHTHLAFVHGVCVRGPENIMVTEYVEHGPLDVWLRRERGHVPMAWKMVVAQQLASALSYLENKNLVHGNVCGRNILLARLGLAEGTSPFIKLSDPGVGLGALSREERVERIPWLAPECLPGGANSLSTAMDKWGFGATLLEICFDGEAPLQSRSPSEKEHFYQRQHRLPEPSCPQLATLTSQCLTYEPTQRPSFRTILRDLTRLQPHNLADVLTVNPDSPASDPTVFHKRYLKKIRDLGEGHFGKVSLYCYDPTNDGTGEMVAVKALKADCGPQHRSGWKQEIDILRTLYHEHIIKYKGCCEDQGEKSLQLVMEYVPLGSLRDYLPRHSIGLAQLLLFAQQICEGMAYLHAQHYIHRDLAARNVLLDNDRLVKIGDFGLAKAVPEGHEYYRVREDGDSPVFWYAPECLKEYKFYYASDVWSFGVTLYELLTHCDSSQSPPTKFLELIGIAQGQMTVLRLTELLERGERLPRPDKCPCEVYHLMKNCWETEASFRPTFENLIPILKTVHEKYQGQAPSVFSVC
Sequence of JAK2 (O60674 whole entry): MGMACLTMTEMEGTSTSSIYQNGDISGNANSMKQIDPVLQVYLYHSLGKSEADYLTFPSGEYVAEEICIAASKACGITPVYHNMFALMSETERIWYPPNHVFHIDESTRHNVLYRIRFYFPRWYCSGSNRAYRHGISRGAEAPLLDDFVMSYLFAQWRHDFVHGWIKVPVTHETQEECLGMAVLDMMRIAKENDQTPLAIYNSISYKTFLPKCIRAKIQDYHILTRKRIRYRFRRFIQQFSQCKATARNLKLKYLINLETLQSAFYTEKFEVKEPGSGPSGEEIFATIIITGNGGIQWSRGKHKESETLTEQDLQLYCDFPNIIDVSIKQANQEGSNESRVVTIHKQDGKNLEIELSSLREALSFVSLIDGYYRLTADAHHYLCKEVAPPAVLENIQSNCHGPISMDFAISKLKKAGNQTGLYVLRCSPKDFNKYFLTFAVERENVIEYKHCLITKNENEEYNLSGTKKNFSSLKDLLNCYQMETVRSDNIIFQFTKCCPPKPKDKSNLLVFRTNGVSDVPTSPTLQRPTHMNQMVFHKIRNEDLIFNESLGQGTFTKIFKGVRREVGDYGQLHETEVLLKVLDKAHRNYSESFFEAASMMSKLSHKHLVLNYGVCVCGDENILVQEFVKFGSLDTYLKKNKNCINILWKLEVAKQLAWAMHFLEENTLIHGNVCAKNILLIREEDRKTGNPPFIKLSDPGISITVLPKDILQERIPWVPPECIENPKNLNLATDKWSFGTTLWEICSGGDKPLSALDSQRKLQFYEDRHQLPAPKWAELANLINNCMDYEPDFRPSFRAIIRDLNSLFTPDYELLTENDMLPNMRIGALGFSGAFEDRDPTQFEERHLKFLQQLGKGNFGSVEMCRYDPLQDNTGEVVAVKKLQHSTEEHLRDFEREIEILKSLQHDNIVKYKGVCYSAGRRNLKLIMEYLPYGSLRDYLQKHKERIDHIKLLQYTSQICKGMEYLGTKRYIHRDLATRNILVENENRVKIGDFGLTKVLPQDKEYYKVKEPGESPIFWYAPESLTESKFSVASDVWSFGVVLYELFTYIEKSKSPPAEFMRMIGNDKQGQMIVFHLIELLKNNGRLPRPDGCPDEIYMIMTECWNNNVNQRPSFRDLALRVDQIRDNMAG

Structure (SMILES): O=C(Nc1nc2cccc(C3CCC4(CC3)CN(C(=O)[C@@H]3CC3(F)F)C4)n2n1)[C@H]1CC1(F)F [Compound 8-6]
- IC50 [1]: 127 nM
- IC50 [2]: 14 nM
- IC50 [3]: 110 nM
- IC50 [4]: 7640 nM

Structure (SMILES): O=C(Nc1nc2cccc(C3CCC4(CC3)CCN(C(=O)[C@@H]3CC3(F)F)C4)n2n1)C1CC1 (some centres unmarked) [Compound 5-8]
- IC50 [1]: 692 nM
- IC50 [2]: 75 nM
- IC50 [3]: 789 nM
- IC50 [4]: 7350 nM

Structure (SMILES): N#CCC(=O)N1CCC2(CCC(c3c(F)ccc4nc(NC(=O)C5CC5)nn34)CC2)CC1 [Compound 10-5]
- IC50 [1]: 430 nM
- IC50 [2]: 336 nM
- IC50 [3]: 812 nM
- IC50 [4]: 5410 nM

- IC50 [1]: 581 nM
- IC50 [2]: 114 nM
- IC50 [4]: > 10000 nM
Structure (SMILES): N#CCN1CC2(CCC(c3cccc4nc(NC(=O)C5CC5)nn34)CC2)C1 [Compound 1-16]

Structure (SMILES): CC(C)(C#N)C(=O)N1CC2(CCC(c3cccc4nc(NC(=O)C5CC5)nn34)CC2)C1 [Compound 1-15]
- IC50 [1]: 106 nM
- IC50 [2]: 20 nM
- IC50 [4]: 9670 nM

Structure (SMILES): O=C(Nc1nc2cccc(C3CCC4(CC3)CN(C(=O)[C@@H]3CC3(F)F)C4)n2n1)[C@@H]1CC1(F)F [Compound 9-3]
- IC50 [1]: 105 nM
- IC50 [2]: 7 nM
- IC50 [3]: 292 nM
- IC50 [4]: > 10000 nM

- IC50 [1]: 371 nM
- IC50 [2]: 65 nM
- IC50 [4]: > 10000 nM
Structure (SMILES): N#CCCN1CC2(CCC(c3cccc4nc(NC(=O)C5CC5)nn34)CC2)C1 [Compound 1-17]

- IC50 [1]: 404 nM
- IC50 [2]: 176 nM
- IC50 [4]: > 10000 nM
Structure (SMILES): O=C(Nc1nc2cccc([C@@H]3CCC4(C3)CN(C(=O)[C@@H]3CC3(F)F)C4)n2n1)C1CC1 [Compound 7-8]

Structure (SMILES): O=C(Nc1nc2cccc(C3CCC4(CC3)CCN(C(=O)[C@@H]3CC3(F)F)C4)n2n1)C1CC1 (some centres unmarked) [Compound 5-7]
- IC50 [1]: 67 nM
- IC50 [2]: 31 nM
- IC50 [3]: 324 nM
- IC50 [4]: 5760 nM

Structure (SMILES): C[C@@H]1C[C@H]2[C@@H]3CCC4=CC(=O)C=C[C@]4(C)[C@@]3(F)[C@@H](O)C[C@]2(C)[C@@]1(O)C(=O)CO [Dexamethasone]
- Inhibition rate (clinical score AUC vs blank group) ([5]; CIA mice, 0.3 mg/kg p.o. qd): 97.3%
- AUC ± SEM of clinical score (AUC of incidence) ([5]; CIA mice, 0.3 mg/kg p.o. qd, administration period): 1.38 ± 0.81
- Average clinical score [5, 7]: 0.00 ± 0.00
- Incidence of arthritis [5, 7]: 0%
- Average clinical score [5, 8]: 0.00 ± 0.00
- Incidence of arthritis [5, 8]: 0%
- Average clinical score [5, 9]: about 0.3
- Incidence of arthritis [5, 9]: 25%
- Average clinical score ([5]; CIA mice, 0.3 mg/kg p.o. qd, day 27, listed as Dex): 0.25 ± 0.16
- Average clinical score [5, 10]: 0.50 ± 0.27
- Incidence of arthritis [5, 10]: 38%
- Average clinical score [5, 11]: 0.25 ± 0.16
- Incidence of arthritis [5, 11]: 25%
- Average clinical score [5, 12]: 0
- Incidence of arthritis [5, 12]: 0%
- Average clinical score [5, 13]: 0.00 ± 0.00
- Incidence of arthritis [5, 13]: 0%
- Average clinical score [5, 14]: 0.00 ± 0.00
- Incidence of arthritis [5, 14]: 0%
- Average clinical score [5, 15]: 0.00 ± 0.00
- Incidence of arthritis [5, 15]: 0%
- Average clinical score [5, 16]: 0.00 ± 0.00
- Incidence of arthritis [5, 16]: 0%
- Average clinical score [5, 17]: 0.00 ± 0.00
- Incidence of arthritis [5, 17]: 0%
- Inhibition rate (clinical score AUC vs blank group) ([5]; CIA mice, 0.3 mg/kg p.o. qd, listed as Dex): 97.3%
- Effect on the weight of mice (comparison between groups) ([5]; mouse, in vivo, po, 0.3 mg/kg): largest weight loss

- IC50 [1]: 570 nM
- IC50 [2]: 381 nM
- IC50 [4]: > 10000 nM
Structure (SMILES): O=C(Nc1nc2cccc([C@@H]3CCC4(CCN(C(=O)[C@@H]5CC5(F)F)CC4)C3)n2n1)C1CC1 [Compound 6-8]

Structure (SMILES): N#CCN1CC2(CCC(c3cccc4nc(NC(=O)[C@H]5CC5(F)F)nn34)CC2)C1 [Compound 8-9]
- IC50 [1]: 1330 nM
- IC50 [2]: 52 nM
- IC50 [3]: 3670 nM
- IC50 [4]: > 10000 nM

- IC50 [1]: 829 nM
- IC50 [2]: 63 nM
- IC50 [4]: 9390 nM
Structure (SMILES): O=C(Nc1nc2cccc([C@H]3CCC4(CCN(C(=O)[C@@H]5CC5(F)F)CC4)C3)n2n1)C1CC1 [Compound 6-7]

- IC50 [1]: 830 nM
- IC50 [2]: 63 nM
- IC50 [4]: > 10000 nM
Structure (SMILES): O=C(Nc1nc2cccc([C@H]3CCC4(C3)CN(C(=O)[C@@H]3CC3(F)F)C4)n2n1)C1CC1 [Compound 7-7]

Structure (SMILES): O=C(Nc1nc2cccc(-c3ccc(CN4CCS(=O)(=O)CC4)cc3)n2n1)C1CC1 [Filgotinib]
- Inhibition rate of total pathological score [6]: 5%
- Clinical scoring, average ([6]; day 13): 6.0
- Feet volume, average ([6]; day 13): 1.9 mL
- Clinical scoring, average ([6]; day 15): 6.6
- Feet volume, average ([6]; day 15): 2.2 mL
- Clinical scoring, average ([6]; day 17): 6.3
- Feet volume, average ([6]; day 17): 2.0** mL
- Clinical scoring, average ([6]; day 20): 5.8**
- Feet volume, average ([6]; day 20): 1.9**** mL
- Clinical scoring, average ([6]; day 22): 5.5***
- Feet volume, average ([6]; day 22): 2.0**** mL
- Clinical scoring, average ([6]; day 24): 5.4****
- Feet volume, average ([6]; day 24): 2.0**** mL
- Feet volume, average ([6]; day 27): 1.91 mL and 1.9**** mL
- Pathology Scoring: Bone resorption ([6]; day 27, right hind leg): 3.6 ± 0.2
- Pathology Scoring: Pannus formation ([6]; day 27, right hind leg): 3.9 ± 0.1
- Pathology Scoring: Total score ([6]; day 27, right hind leg): 15.2±0.49 and 15.2 ± 0.5
- Pathology Scoring: articular injury ([6]; day 27, right hind leg): 3.7 ± 0.2

Structure (SMILES): N#CCN1CC2(CCC(c3cccc4nc(NC(=O)[C@@H]5CC5(F)F)nn34)CC2)C1 [Compound 9-6]
- IC50 [1]: 1390 nM
- IC50 [2]: 432 nM
- IC50 [3]: 1170 nM
- IC50 [4]: > 10000 nM

Structure (SMILES): N#CCC(=O)N1CC2(CCC(F)(c3cccc4nc(NC(=O)C5CC5)nn34)CC2)C1 [Compound 4-6]
- IC50 [1]: 307 nM
- IC50 [2]: 170 nM
- IC50 [3]: 2010 nM
- IC50 [4]: 8450 nM

Reference: patent US11919896B2, “[1,2,4]triazolo[1,5-a]pyridine compound as JAK inhibitor and use thereof” (Zhuhai United Laboratories Co., Ltd., priority 2018, dated 2024)
